Source: the supplement of paper PMC4862054

Tests used:
Conditions in all cases: incubation time: 72 h
BT-474 [1] = experiment: normalised viability (% of control), CellTiter-Blue; higher = more viable cells (about 100 = DMSO control)
Method in brief: (§1)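 Normalised viability is given for a single listed concentration of the series. In 384-well plates, breast cancer cell lines were incubated 72 h with compound, then read with CellTiter-Blue (2 h, 37 °C) at 560/590 nm. Per-plate scaling set vehicle to 100 and a positive kill control to 0, with Z'-factor quality control.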

CAL-120 [2] = experiment: as above
Method in brief: as §1

CAL-148 = experiment: as above
Method in brief: as §1

CAL-51 [3] = experiment: as above
Method in brief: as §1

CAL-85-1 [4] = experiment: as above
Method in brief: as §1

HCC1143 = experiment: as above
Method in brief: as §1

HCC1599 [5] = experiment: as above
Method in brief: as §1

HCC1937 = experiment: as above
Method in brief: as §1

HDQ-P1 [6] = experiment: as above
Method in brief: as §1

Hs578T [7] = experiment: as above
Method in brief: as §1

MDA-MB-231 [8] = experiment: as above
Method in brief: as §1

MDA-MB-468 = experiment: as above
Method in brief: as §1

MFM-223 = experiment: as above
Method in brief: as §1

SK-BR-3 [9] = experiment: as above
Method in brief: as §1

BT-474 [10] = experiment: drug sensitivity score (DSS), CellTiter-Glo (DSS (AUC-based score)); higher = stronger drug effect (viability inhibition or cytotoxicity); extreme values may be limits of the assay
Method in brief: (§2)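 The drug sensitivity score reflects the area under a fitted dose-response curve. To obtain it, breast cancer cells in 20 µl suspension were seeded into 384-well plates containing compound at 5 concentrations, 10-fold apart over a compound-specific 10,000-fold range, and incubated 72 h. CellTox Green fluorescence (485/520 nm) was read first and CellTiter-Glo luminescence second, after 10 min at room temperature. Each plate was normalised to 0.1 % DMSO and a positive kill control.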

CAL-120 [11] = experiment: as above
Method in brief: as §2

CAL-51 [12] = experiment: as above
Method in brief: as §2

CAL-85-1 [13] = experiment: as above
Method in brief: as §2

DU-4475 = experiment: as above
Method in brief: as §2

HCC1599 [14] = experiment: as above
Method in brief: as §2

HDQ-P1 [15] = experiment: as above
Method in brief: as §2

Hs578T [16] = experiment: as above
Method in brief: as §2

MDA-MB-231 [17] = experiment: as above
Method in brief: as §2

SK-BR-3 [18] = experiment: as above
Method in brief: as §2

CNCc1ccc(-c2[nH]c3cc(F)cc4c3c2CCNC4=O)cc1 [Rucaparib]
normalised viability [%]
Conditions | 3 nM | 10 nM | 30 nM | 100 nM | 1000 nM | 10000 nM
BT-474 [1] | – | 108 | – | – | 111 | 102
CAL-51 [3] | 119 | – | 114 | 110 | – | –
CAL-85-1 [4] | 93.2 | – | 84.2 | 94.6 | – | –
CAL-120 [2] | – | 77.4 | – | – | 81 | 76.8
CAL-148 | 90.5 | – | 87.6 | 92.6 | – | –
HCC1143 | – | 84.3 | – | – | 94.2 | 89.9
HCC1599 [5] | – | 95.8 | – | – | 128 | 96.2
HCC1937 | – | 55.9 | – | – | 72.2 | 52.7
HDQ-P1 [6] | 87 | – | 88 | 88.2 | – | –
Hs578T [7] | – | 112 | – | – | 107 | 94.4
MDA-MB-231 [8] | – | 99.2 | – | – | 84.3 | 75.4
MDA-MB-468 | – | 103 | – | – | 105 | 77.5
MFM-223 | – | 95.4 | – | – | 99.2 | 61.5
SK-BR-3 [9] | – | 97.5 | – | – | 98.2 | 78.5

Conditions | drug sensitivity score
BT-474 [10] | 1.39
CAL-51 [12] | 0
CAL-85-1 [13] | 0
CAL-120 [11] | 0
DU-4475 | 0
HCC1599 [14] | 0
HDQ-P1 [15] | 0
Hs578T [16] | 0
MDA-MB-231 [17] | 0
SK-BR-3 [18] | 0

CN[C@@H]1C[C@H]2O[C@@](C)([C@@H]1OC)n1c3ccccc3c3c4c(c5c6ccccc6n2c5c31)C(=O)N[C@H]4O [UCN-01]
normalised viability [%]
Conditions | 3 nM | 10 nM | 30 nM | 100 nM | 1000 nM | 10000 nM
BT-474 [1] | – | 108 | – | – | 44.2 | 2.62
CAL-51 [3] | 99.7 | – | 87.2 | 62.6 | – | –
CAL-85-1 [4] | 87.4 | – | 73.6 | 60.4 | – | –
CAL-120 [2] | – | 72.8 | – | – | 17.7 | 9.93
CAL-148 | 92.2 | – | 105 | 106 | – | –
HCC1143 | – | 77.7 | – | – | 20.6 | 20.4
HCC1599 [5] | – | 81.1 | – | – | 48.3 | 21.2
HCC1937 | – | 71.7 | – | – | 25.6 | 7.84
HDQ-P1 [6] | 82.2 | – | 66.8 | 39.6 | – | –
Hs578T [7] | – | 88.3 | – | – | 7.74 | 0.41
MDA-MB-231 [8] | – | 93.7 | – | – | 17.2 | 0.84
MDA-MB-468 | – | 126 | – | – | 7.27 | 6.64
MFM-223 | – | 103 | – | – | 42.1 | 13.5
SK-BR-3 [9] | – | 101 | – | – | 16.5 | 3.68

Conditions | drug sensitivity score
BT-474 [10] | 26
CAL-51 [12] | 23.9
CAL-85-1 [13] | 22.6
CAL-120 [11] | 24.9
DU-4475 | 19.9
HCC1599 [14] | 27.9
HDQ-P1 [15] | 18.8
Hs578T [16] | 27.5
MDA-MB-231 [17] | 28.1
SK-BR-3 [18] | 24
